{
  "source": "patent US7906657B2",
  "about": "(Merck Patent Gesellschaft MIT Beschraenkter Haftung, priority 2006, dated 2011)",
  "target": "T1, Recombinant human HSP90α (Homo sapiens, UniProt P07900)",
  "T1 construct": "host or cells: E. coli",
  "test": "radioligand filter binding test with [3H]17AAG (HSP90 inhibition)",
  "settings": "competition with [3H]17AAG 0.08 μM; HSP90 1.5 μg/assay; 22° C., 30 min",
  "excerpt": "Test Method for the Measurement of HSP90 Inhibitors\nThe binding of geldanamycin or 17- allylamino-17-demethoxygeldanamycin (17AAG) to HSP90 and competitive inhibition thereof can be utilised in order to determine the inhibitory activity of the compounds according to the invention (Carreras et al. 2003, Chiosis et al. 2002).\nIn the specific case, a radioligand filter binding test is used. The radio-ligand used here is tritium-labelled 17-allylaminogeldanamycin, [3H]17AAG. This filter binding test allows a targeted search for inhibitors which interfere with the ATP binding site.\nRecombinant human HSP90α (E. coli expressed, 95% purity);\n[3H]17AAG (17-allylaminogeldanamycin, [allylamino-2,3-^3H. Specific activity: 1.11×10^12 Bq/mmol (Moravek, MT-1717);\nHEPES filter buffer (50 mM HEPES, pH 7.0, 5 mM MgCl2, BSA 0.01%) Multiscreen FB (1 μm) filter plate (Millipore, MAFBNOB 50).\nThe 96-well microtitre filter plates are firstly irrigated and coated with 0.1% of polyethylenimine.\nThe test is carried out under the following conditions:\nReaction temperature 22° C.\nReaction time: 30 min., shaking at 800 rpm\n50 mM HEPES HCI, pH 7.0, 5 mM MgCl2, 0.01% (w/v) BSA\nAt the end of the reaction, the supernatant in the filter plate is removed by suction with the aid of a vacuum manifold (Multiscreen Separation System, Millipore), and the filter is washed twice.\nThe filter plates are then measured in a beta counter (Microbeta, Wallac) with scintillator (Microscint 20, Packard).\n“% of control” is determined from the “counts per minutes” values and the IC-50 value of a compound is calculated therefrom.",
  "data": [
    {"smiles": "Cc1ccccc1-n1nccc1-c1cc(C(=O)N(C)Cc2cccc(Br)c2)c(O)cc1O", "note": "[Compound A20, 5-{5-[N-(3-Bromobenzyl)-N-methylaminocarbonyl]-2,4-dihydroxyphenyl}-1-(2-methylphenyl)-1H-pyrazole]", "values": [
      {"measurement": "IC50", "value": 0.031, "unit": "µM"}
    ]},
    {"smiles": "Cc1ccccc1-n1nccc1-c1cc(C(=O)N(C)Cc2cccc(F)c2)c(O)cc1O", "note": "[Compound A7, 5-{5-[N-(3-Fluorobenzyl)-N-methylaminocarbonyl]-2,4-dihydroxyphenyl}-1-(2-methylphenyl)-1H-pyrazole]", "values": [
      {"measurement": "IC50", "value": 0.03, "unit": "µM"}
    ]},
    {"smiles": "Cc1ccccc1-n1nccc1-c1cc(C(=O)N(C)Cc2ccc3c(c2)OCO3)c(O)cc1O", "note": "[Compound A25]", "values": [
      {"measurement": "IC50", "value": 0.054, "unit": "µM"}
    ]},
    {"smiles": "Cc1ccccc1CN(C)C(=O)c1cc(-c2ccnn2-c2ccccc2C)c(O)cc1O", "note": "[Compound A23, 5-{5-[N-(2-Methylbenzyl)-N-methylaminocarbonyl]-2,4-dihydroxyphenyl}-1-(2-methylphenyl)-1H-pyrazole]", "values": [
      {"measurement": "IC50", "value": 0.027, "unit": "µM"}
    ]},
    {"smiles": "Cc1ccccc1-n1nccc1-c1cc(C(=O)N(C)Cc2ccccc2)c(O)cc1O", "note": "[Compound A17, 5-[5-(N-Benzyl-N-methylaminocarbonyl)-2,4-dihydroxyphenyl]-1-(2-methylphenyl)-1H-pyrazole]", "values": [
      {"measurement": "IC50", "value": 0.033, "unit": "µM"}
    ]},
    {"smiles": "Cc1ccccc1-n1nccc1-c1cc(C(=O)N(C)Cc2ccc(F)cc2)c(O)cc1O", "note": "[Compound A5, 5-{5-[N-(4-Fluorobenzyl)-N-methylaminocarbonyl]-2,4-dihydroxyphenyl}-1-(2-methylphenyl)-1H-pyrazole]", "values": [
      {"measurement": "IC50", "value": 0.043, "unit": "µM"}
    ]},
    {"smiles": "Cc1ccccc1-n1nccc1-c1cc(C(=O)N(C)Cc2c(F)cccc2Cl)c(O)cc1O", "note": "[Compound A30, 5-{5-[N-(2-Chloro-6-fluorobenzyl)-N-methylaminocarbonyl]-2,4-dihydroxyphenyl}-1-(2-methylphenyl)-1H-pyrazole]", "values": [
      {"measurement": "IC50", "value": 0.026, "unit": "µM"}
    ]},
    {"smiles": "COc1ccc(Cl)cc1CN(C)C(=O)c1cc(-c2ccnn2-c2ccccc2C)c(O)cc1O", "note": "[Compound A32, 5-{5-[N-(3-Chloro-6-methoxybenzyl)-N-methylaminocarbonyl]-2,4-dihydroxyphenyl}-1-(2-methylphenyl)-1H-pyrazole]", "values": [
      {"measurement": "IC50", "value": 0.052, "unit": "µM"}
    ]},
    {"smiles": "Cc1ccccc1-n1nccc1-c1cc(C(=O)N(C)Cc2ccc(Cl)cc2Cl)c(O)cc1O", "note": "[Compound A35, 5-{5-[N-(2,4-Dichlorobenzyl)-N-methylaminocarbonyl]-2,4-dihydroxyphenyl}-1-(2-methylphenyl)-1H-pyrazole]", "values": [
      {"measurement": "IC50", "value": 0.22, "unit": "µM"}
    ]},
    {"smiles": "COc1ccc(CN(C)C(=O)c2cc(-c3ccnn3-c3ccccc3C)c(O)cc2O)c(OC)c1", "note": "[Compound A31, 5-{5-[N-(2,4-Dimethoxybenzyl)-N-methylaminocarbonyl]-2,4-dihydroxyphenyl}-1-(2-methylphenyl)-1H-pyrazole]", "values": [
      {"measurement": "IC50", "value": 0.32, "unit": "µM"}
    ]},
    {"smiles": "CN(Cc1ccccc1)C(=O)c1cc(-c2ccnn2-c2ccccc2Cl)c(O)cc1O", "note": "[Compound A2, 5-[5-(N-Benzyl-N-methylaminocarbonyl)-2,4-dihydroxyphenyl]-1-(2-chlorophenyl)-1H-pyrazole]", "values": [
      {"measurement": "IC50", "value": 0.044, "unit": "µM"}
    ]},
    {"smiles": "CN(Cc1ccccn1)C(=O)c1cc(-c2ccnn2-c2ccccc2Cl)c(O)cc1O", "note": "[Compound A60, 5-{5-[N-(Pyridin-2-ylmethyl)-N-methylaminocarbonyl]-2,4-dihydroxyphenyl}-1-(2-chlorophenyl)-1H-pyrazole]", "values": [
      {"measurement": "IC50", "value": 0.16, "unit": "µM"}
    ]},
    {"smiles": "Cc1ccccc1-n1nccc1-c1cc(C(=O)N(C)Cc2ccccc2F)c(O)cc1O", "note": "[Compound A6, 5-{5-[N-(2-Fluorobenzyl)-N-methylaminocarbonyl]-2,4-dihydroxyphenyl}-1-(2-methylphenyl)-1H-pyrazole]", "values": [
      {"measurement": "IC50", "value": 0.054, "unit": "µM"}
    ]},
    {"smiles": "COc1ccccc1CN(C)C(=O)c1cc(-c2ccnn2-c2ccccc2C)c(O)cc1O", "note": "[Compound A9, 5-{5-[N-(2-Methoxybenzyl)-N-methylaminocarbonyl]-2,4-dihydroxyphenyl}-1-(2-methylphenyl)-1H-pyrazole]", "values": [
      {"measurement": "IC50", "value": 0.04, "unit": "µM"}
    ]},
    {"smiles": "Cc1ccc(CN(C)C(=O)c2cc(-c3ccnn3-c3ccccc3C)c(O)cc2O)c(C)c1", "note": "[Compound A24, 5-{5-[N-(2,4-Dimethylbenzyl)-N-methylaminocarbonyl]-2,4-dihydroxyphenyl}-1-(2-methylphenyl)-1H-pyrazole]", "values": [
      {"measurement": "IC50", "value": 0.02, "unit": "µM"}
    ]}
  ]
}
